From patent publication US9839640B2, “Methods of treating eye diseases associated with inflammation and vascular proliferation” (OccuRx Pty Ltd, priority 2010, dated 2017)

How the values were obtained:
Assay type in all cases: in vivo, rat
[1] = Animal characteristics (8 weeks study), STZ diabetic (mRen-2) 27 rats treated with FT011; details: FT011 200 mg/kg/day (100 mg/kg bid gavage), P < 0.05 versus untreated diabetes
Method: (§1) Ninety, six-week old female, heterozygous (mRen-2) 27 rats (St. Vincent's Hospital Animal House, Melbourne, Australia) were assigned to receive either 55 mg/kg of streptozotocin (STZ) (Sigma, St. Louis, USA) diluted in 0.1 M citrate buffer, pH 4.5 or citrate buffer alone (non-diabetic control) by tail vein injection following an overnight fast. In short term study, rats were randomly assigned to receive (n=10/group) treatment with either FT011 (100 mg/kg bid gavage) or vehicle for 8 weeks. Non-diabetic animals (n=10) served as controls. In the long term study, at 16 weeks of STZ diabetes rats were randomly assigned to either treatment (n=15/group) with, FT011 (50 mg/kg/day BID), FT011 (100 mg/kg BID) or no treatment for a further 16 weeks. Non-diabetic animals (n=15) served as controls. Each week, rats were weighed and their blood glucose levels were measured (Accu-check Advantage II Blood Glucose Monitor, Roche Diagnostics, USA) and only STZ-treated animals with blood glucose >15 mmol/L were considered diabetic. Every 4 weeks, SBP was determined in preheated conscious rats via tail-cuff plethysmography using a non-invasive blood pressure (NIBP) controller and Powerlab (AD instruments, NSW, Australia). Haemoglobin A1c (HbA1c) was measured by HPLC at the end of the study in the Department of Pathology, St Vincent's Hospital. […]

[2] = Animal characteristics (32 weeks study), STZ diabetic (mRen-2) 27 rats treated with FT011
Method: as §1

acellular capillaries = test: Trypsin digest, acellular capillaries in PAS stained retina (long term study 32 weeks); details: diabetic rats, 100 mg/kg/day FT011, long term study
Method: as §1

ICAM-1 mRNA [3] = test: Real time PCR of retinal ICAM-1 mRNA (short term study); details: FIG. 3; diabetic rats treated with FT011, short term 8 week study; normalised to 18S rRNA
Method: as §1

leukocytes in the retina [4] = test: Leukostasis (short term study), rhodamine-coupled Concanavalin A staining of retina
Method: as §1

VEGF mRNA = test: Real time PCR of retinal VEGF mRNA (FT061 study); details: FIG. 9; diabetic rats, FT061 100 mg/kg/day 8 weeks, compared to controls and untreated diabetes
Method: (§2) Sixty, six-week old female, heterozygous (mRen-2) 27 rats (St. Vincent's Hospital Animal House, Melbourne, Australia) were assigned to receive either 55 mg/kg of streptozotocin (STZ) (Sigma, St. Louis, USA) diluted in 0.1 M citrate buffer, pH 4.5 or citrate buffer alone (non-diabetic control) by tail vein injection following an overnight fast. Rats were randomly assigned to receive (n=15/group) treatment with either FT061 (100 mg/kg/day gavage) or vehicle for 8 weeks. Non-diabetic animals (n=15) served as controls. Each week, rats were weighed and their blood glucose levels were measured (Accu-check Advantage II Blood Glucose Monitor, Roche Diagnostics, USA) and only STZ-treated animals with blood glucose >15 mmol/L were considered diabetic. Every 4 weeks, SBP was determined in preheated conscious rats via tail-cuff plethysmography using a non-invasive blood pressure (NIBP) controller and Powerlab (AD instruments, NSW, Australia). […]
(§3) At the end of the study, rats were anaesthetized with lethobarb (60 mg/kg), eyes were enucleated and retinae dissected and placed in RNAlater (#R0901, Sigma-Aldrich). […] RNA concentration was determined on a Nanodrop 3.1.2, after which 1 μg of RNA was DNase treated (DNA-free kit, Ambion) and reverse transcribed (First Strand cDNA Synthesis Kit for RT-PCR, Roche). […]

ICAM-1 mRNA [5] = test: Real time PCR of retinal ICAM-1 mRNA (FT061 study); details: FIG. 8; diabetic rats, FT061 100 mg/kg/day 8 weeks, compared to controls and untreated diabetes
Method: as §2, §3

leukocytes in the retina [6] = test: Leukostasis, rhodamine-coupled Concanavalin A staining of retina (FT061 study)
Method: Sixty, six-week old female, heterozygous (mRen-2) 27 rats (St. Vincent's Hospital Animal House, Melbourne, Australia) were assigned to receive either 55 mg/kg of streptozotocin (STZ) (Sigma, St. Louis, USA) diluted in 0.1 M citrate buffer, pH 4.5 or citrate buffer alone (non-diabetic control) by tail vein injection following an overnight fast. Rats were randomly assigned to receive (n=15/group) treatment with either FT061 (100 mg/kg/day gavage) or vehicle for 8 weeks. Non-diabetic animals (n=15) served as controls. Each week, rats were weighed and their blood glucose levels were measured (Accu-check Advantage II Blood Glucose Monitor, Roche Diagnostics, USA) and only STZ-treated animals with blood glucose >15 mmol/L were considered diabetic. Every 4 weeks, SBP was determined in preheated conscious rats via tail-cuff plethysmography using a non-invasive blood pressure (NIBP) controller and Powerlab (AD instruments, NSW, Australia). Diabetic rats received a daily injection of insulin (2-4 units intraperitoneally; Humulin NPH, Eli Lilly and Co., Indianapolis, Ind.) to reduce mortality and to promote weight gain.
At the end of the study, rats were anaesthetized with Lethobarb (60 mg/kg) and the chest cavity was opened. […] The total number of leukocytes was counted per retina. […]

## C#CCOc1ccc(/C=C/C(=O)Nc2ccccc2C(=O)O)cc1OC [FT011]
[1]
  HbA1C: 8.9 ± 0.50 %
[2]; FT011 100 mk/kg/day, P < 0.05 versus control
  HbA1C: 7.65 ± 0.25 %
[2]; FT011 200 mk/kg/day, P < 0.05 versus untreated diabetes
  HbA1C: 6.58 ± 0.37 %
Acellular capillaries; FIG. 4, compared to untreated diabetic rats
  number of acellular capillaries per field: less acellular capillaries
Acellular capillaries; FIG. 5
  acellular capillaries (pericyte ghost), representative micrographs: pericyte ghosts were not apparent
ICAM-1 mRNA [3]
  retinal ICAM-1 mRNA levels: reduction in ICAM-1 mRNA levels
Leukocytes in the retina [4]; FIG. 1, diabetic rats, FT011 100 mg/kg bid gavage 8 weeks, compared to untreated diabetic rats
  total number of leukocytes in the retina: significantly less
Leukocytes in the retina [4]; FIG. 2, diabetic rats treated with FT011, short term study
  leukostasis (representative micrographs): significantly reduced leukostasis

## O=C(/C=C/c1ccc(OC(F)F)c(OC(F)F)c1)Nc1ccccc1C(=O)O [FT061]
VEGF mRNA
  retinal VEGF mRNA levels: reduction in VEGF mRNA levels
ICAM-1 mRNA [5]
  retinal ICAM-1 mRNA levels: reduction in ICAM-1 mRNA levels
Leukocytes in the retina [6]; FIG. 6, diabetic rats, FT061 100 mg/kg/day gavage 8 weeks, compared to untreated diabetic rats
  total number of leukocytes in the retina: significantly less
Leukocytes in the retina [6]; FIG. 7, diabetic rats treated with FT061
  leukostasis (representative photomicrographs): significantly reduced leukostasis
